The text below walks through data of ChEMBL document CHEMBL4261595, “Discovery of 3-(4-sulfamoylnaphthyl)pyrazolo[1,5-a]pyrimidines as potent and selective ALK2 inhibitors” (Bioorg Med Chem Lett, 2018).

Values after ≈ are worked out from the molar mass of the structure shown.

As a reminder, the solubility is the concentration that dissolves in the medium under given conditions. The low end stands for little dissolved substance, the high end for much dissolved substance. Broadly, the bioavailability is the share of a dose that reaches the circulation, judged against a reference dose that is usually intravenous. Read a low bioavailability as little systemic uptake. As a reminder, the half-life is how long it takes for the measured level to halve. What is called AUC(0-inf) is the area under the concentration-time curve extrapolated to infinity. A low value points to low exposure. The term clearance denotes a measure of how efficiently the substance is removed, as volume per time. Read a low clearance as a low capacity for elimination. Broadly, the Cmax is the maximum level reached in the sampled fluid or tissue.

A short description of data set [1]: physchem. As to conditions: aqueous, pH 7.4.
For data set [2] the following is noted: rat, microsomes.
Data set [3] in a line: Permeability of the compound by PAMPA. To be noted: read-out: permeability. The data set is classed as ADME.
Data set [4] is described as follows: Oral bioavailability in C57BL/6 mouse at 3 mg/kg. The data set is classed as ADME, organism-based. As to conditions: in vivo.
A short description of data set [5]: Half life in C57BL/6 mouse at 3 mg/kg, iv. The data set is classed as ADME, organism-based. To be noted: in vivo.
Data set [6] in a line: AUC (0 to infinity) in C57BL/6 mouse at 3 mg/kg, iv. The data set is classed as ADME, organism-based. On the set-up: dose 3 mg/kg, time infinity, route intravenous. As to conditions: in vivo.
Data set [7] can be described thus: Half life in C57BL/6 mouse at 3 mg/kg, po. As to conditions: in vivo. Format: ADME, organism-based.
The nature of data set [8]: Volume of distribution at steady state in C57BL/6 mouse at 3 mg/kg, iv. The data set is classed as ADME, organism-based. As to conditions: in vivo, read-out: Vdss.
Data set [9] is described as follows: AUC (0 to infinity) in C57BL/6 mouse at 3 mg/kg, po. The data set is classed as ADME, organism-based. On the set-up: dose 3 mg/kg, time infinity, route oral. To be noted: in vivo.
A short description of data set [10]: Clearance in C57BL/6 mouse plasma at 3 mg/kg, iv. The data set is classed as ADME, organism-based.
A short description of data set [11]: Cmax in C57BL/6 mouse at 3 mg/kg, po. Format: ADME, organism-based. To be noted: in vivo. On the set-up: dose 3 mg/kg, route oral.

The compound `NS(=O)(=O)c1ccc(-c2cnn3cc(-c4ccc(C5CCNCC5)cc4)cnc23)c2ccccc12` had a solubility in [1] of less than 1 µg/mL. Further, the t1/2 in data set [2] was greater than 30 min. The Papp in data set [3] was 78.6 ×10⁻⁶ cm/s.
With `CC(C)(CN1CCCCC1)Oc1ccc(-c2cnc3c(-c4ccc(S(N)(=O)=O)c5ccccc45)cnn3c2)cc1`, the solubility in data set [1] was less than 1 µg/mL. This compound also returned a t1/2 in [2] of 6.1 min.
As to `NC1(c2ccc(-c3cnc4c(-c5ccc(S(N)(=O)=O)c6ccccc56)cnn4c3)cc2)CCC1`, in [1], the solubility was less than 1 µg/mL.
`CN(C)CCOc1ccc(-c2cnc3c(-c4ccc(S(N)(=O)=O)c5ccccc45)cnn3c2)cn1` displayed a solubility in [1] of less than 1 µg/mL. The compound also gave a t1/2 in data set [2] of 9.4 min. The Papp in data set [3] is 8.8 ×10⁻⁶ cm/s.
Taken in the same sequence, the figures for `NS(=O)(=O)c1ccc(-c2cnn3cc(-c4ccc(N5CCNCC5)nc4)cnc23)c2ccccc12` were 1.4 µg/mL (≈ 2.88 µM), greater than 30 min and 8.3 ×10⁻⁶ cm/s.
In turn, `NS(=O)(=O)c1ccc(-c2cnn3cc(-c4ccc(CN5CCCC5)cc4)cnc23)c2ccccc12` showed a solubility in data set [1] of 8 µg/mL (≈ 16.5 µM). This compound displayed a t1/2 in [2] of 21.9 min. Also, in data set [3], the Papp was determined as 467 ×10⁻⁶ cm/s.
`CC(C)(N)c1ccc(-c2cnc3c(-c4ccc(S(N)(=O)=O)c5ccccc45)cnn3c2)cc1` gave a solubility in data set [1] of 10.6 µg/mL (≈ 23.2 µM). Besides, the t1/2 in [2] is greater than 30 min. For the same compound, the Papp in data set [3] was 9.4 ×10⁻⁶ cm/s.
In [4], `CC(c1ccc(-c2cnc3c(-c4ccc(S(N)(=O)=O)c5ccccc45)cnn3c2)cc1)N1CCCC1` (stereo not given) showed a bioavailability of 24%. The solubility in [1] worked out at 7 µg/mL (≈ 14.1 µM). Besides, the figures for the half-life in data set [5] and in [7] were 210 min and 258 min, respectively. Further, the figures for the AUC(0-inf) in data set [6] and in data set [9] were 3220 ng·h/mL and 782 ng·h/mL, respectively. The t1/2 in [2] is 22.8 min. In addition, the Vd in data set [8] turned out to be 4.6 L/kg. Also, in data set [10], the clearance amounted to 16 mL/min/kg. In data set [11], this compound displayed a peak concentration (Cmax) of 67 ng/mL.
The compound `NS(=O)(=O)c1ccc(-c2cnn3cc(-c4ccc(OCCN5CCCC5)cc4)cnc23)c2ccccc12` returned a solubility in data set [1] of 33 µg/mL (≈ 64.2 µM). This compound also showed a t1/2 in [2] greater than 30 min. For the same compound, the Papp in data set [3] was found to be 317 ×10⁻⁶ cm/s.
As for `NS(=O)(=O)c1ccc(-c2cnn3cc(-c4ccc(OCCN5CCCCC5)nc4)cnc23)c2ccccc12`, the solubility in data set [1] was less than 1 µg/mL. Further, the t1/2 in data set [2] came to 20.9 min. The Papp in data set [3] was 365 ×10⁻⁶ cm/s.
Consider `CC(N)c1ccc(-c2cnc3c(-c4ccc(S(N)(=O)=O)c5ccccc45)cnn3c2)cc1` (stereo not given), for which the solubility in [1] turned out to be 7.6 µg/mL (≈ 17.1 µM).
